Assay results reported in ChEMBL document CHEMBL1201862, “PubChem BioAssay data set” (2004).
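Growth conditions: 96-well plates. Treatment: test compound, 48 hours, 5 concentrations. Analysis: linear interpolation between bracketing concentrations; unreached endpoints set to highest concentration. The concentration for 50% growth inhibition is given as GI50.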 Calls of active or inactive are those of the source. Cut-off read from the data, not from the text of the source: active = GI50 up to about 1.1 µM and inactive = higher.

Key:
Experiment in all cases: NCI-60 cell line screen, 48 h
A498 = system: A498
ACHN = system: ACHN
BT-549 = system: BT-549
CAKI-1 = system: CAKI-1
CCRF-CEM = system: CCRF-CEM
COLO 205 = system: COLO 205
DU-145 = system: DU-145
EKVX = system: EKVX
HCC 2998 = system: HCC 2998
HCT-116 = system: HCT-116
HCT-15 = system: HCT-15
HL-60 = system: HL-60
HOP-62 = system: HOP-62
HT-29 = system: HT-29
Hs-578T = system: Hs-578T
IGROV-1 = system: IGROV-1
K562 = system: K562
KM12 = system: KM12
LOX IMVI = system: LOX IMVI
M14 = system: M14
MCF7 = system: MCF7
MDA-MB-231 = system: MDA-MB-231
MDA-MB-435 = system: MDA-MB-435
MDA-N = system: MDA-N
MOLT-4 = system: MOLT-4
Malme-3M = system: Malme-3M
NCI-H226 = system: NCI-H226
NCI-H23 = system: NCI-H23
NCI-H522 = system: NCI-H522
NCI/ADR-RES = system: NCI/ADR-RES
OVCAR-5 = system: OVCAR-5
OVCAR-8 = system: OVCAR-8
PC-3 = system: PC-3
RPMI-8226 = system: RPMI-8226
RXF 393 = system: RXF 393
SF-268 = system: SF-268
SF-295 = system: SF-295
SK-MEL-28 = system: SK-MEL-28
SK-MEL-2 = system: SK-MEL-2
SK-MEL-5 = system: SK-MEL-5
SK-OV-3 = system: SK-OV-3
SN12C = system: SN12C
SNB-19 = system: SNB-19
SNB-75 = system: SNB-75
SR = system: SR
SW-620 = system: SW-620
T47D = system: T47D
TK-10 = system: TK-10
U-251 = system: U-251
UACC-257 = system: UACC-257
UACC-62 = system: UACC-62
UO-31 = system: UO-31
786-0 = system: 786-0
A549 = system: A549
OVCAR-3 = system: OVCAR-3
OVCAR-4 = system: OVCAR-4
NCI-H460 = system: NCI-H460

Nc1nnc2ccc(Cl)cc2[n+]1[O-]
GI50 (A498): 68.5 µM (inactive)
GI50 (ACHN): 62.7 µM (inactive)
GI50 (BT-549): > 100 µM (inactive)
GI50 (CAKI-1): > 100 µM (inactive)
GI50 (CCRF-CEM): 29.6 µM (inactive)
GI50 (COLO 205): 24.4 µM (inactive)
GI50 (DU-145): > 100 µM (inactive)
GI50 (EKVX): 47.6 µM (inactive)
GI50 (HCC 2998): 40.8 µM (inactive)
GI50 (HCT-116): 39.7 µM (inactive)
GI50 (HCT-15): 36.2 µM
GI50 (HL-60): 29.3 µM (inactive)
GI50 (HOP-62): > 100 µM (inactive)
GI50 (HT-29): 42.4 µM (inactive)
GI50 (Hs-578T): 41.7 µM (inactive)
GI50 (IGROV-1): 31.8 µM (inactive)
GI50 (K562): 21.8 µM (inactive)
GI50 (KM12): > 100 µM (inactive)
GI50 (LOX IMVI): 57.5 µM (inactive)
GI50 (M14): 39.1 µM (inactive)
GI50 (MCF7): 70.1 µM (inactive)
GI50 (MDA-MB-231): 37.9 µM (inactive)
GI50 (MDA-MB-435): 57 µM (inactive)
GI50 (MDA-N): 37.6 µM (inactive)
GI50 (MOLT-4): 35.1 µM (inactive)
GI50 (Malme-3M): 54 µM (inactive)
GI50 (NCI-H226): > 100 µM (inactive)
GI50 (NCI-H23): 30.1 µM (inactive)
GI50 (NCI-H522): 38 µM (inactive)
GI50 (NCI/ADR-RES): 40.1 µM (inactive)
GI50 (OVCAR-5): > 100 µM (inactive)
GI50 (OVCAR-8): 24.9 µM (inactive)
GI50 (PC-3): > 100 µM (inactive)
GI50 (RPMI-8226): > 100 µM (inactive)
GI50 (RXF 393): 29.8 µM (inactive)
GI50 (SF-268): 38 µM (inactive)
GI50 (SF-295): > 100 µM (inactive)
GI50 (SK-MEL-28): 62.5 µM (inactive)
GI50 (SK-MEL-2): 49.3 µM (inactive)
GI50 (SK-MEL-5): 31 µM (inactive)
GI50 (SK-OV-3): 28.6 µM (inactive)
GI50 (SN12C): > 100 µM (inactive)
GI50 (SNB-19): > 100 µM (inactive)
GI50 (SNB-75): > 100 µM (inactive)
GI50 (SR): 46.3 µM (inactive)
GI50 (SW-620): 36.5 µM (inactive)
GI50 (T47D): 44.9 µM (inactive)
GI50 (TK-10): > 100 µM (inactive)
GI50 (U-251): > 100 µM (inactive)
GI50 (UACC-257): 94 µM (inactive)
GI50 (UACC-62): 49 µM (inactive)
GI50 (UO-31): > 100 µM (inactive)

CN(C)C(=C1c2cc([N+](=O)[O-])ccc2-c2ccc([N+](=O)[O-])cc21)N(C)C
GI50 (786-0): > 100 µM (inactive)
GI50 (A498): > 100 µM (inactive)
GI50 (A549): > 100 µM (inactive)
GI50 (ACHN): > 100 µM (inactive)
GI50 (BT-549): > 100 µM (inactive)
GI50 (CAKI-1): 5.93 µM (inactive)
GI50 (CCRF-CEM): > 100 µM (inactive)
GI50 (COLO 205): > 100 µM (inactive)
GI50 (DU-145): > 100 µM (inactive)
GI50 (EKVX): > 100 µM (inactive)
GI50 (HCC 2998): > 100 µM (inactive)
GI50 (HCT-116): > 100 µM (inactive)
GI50 (HCT-15): > 100 µM
GI50 (HOP-62): > 100 µM (inactive)
GI50 (HT-29): > 100 µM (inactive)
GI50 (Hs-578T): > 100 µM (inactive)
GI50 (IGROV-1): > 100 µM (inactive)
GI50 (K562): > 100 µM (inactive)
GI50 (KM12): > 100 µM (inactive)
GI50 (M14): > 100 µM (inactive)
GI50 (MCF7): > 100 µM (inactive)
GI50 (MDA-MB-231): > 100 µM (inactive)
GI50 (MDA-MB-435): > 100 µM (inactive)
GI50 (MDA-N): > 100 µM (inactive)
GI50 (MOLT-4): 5.24 µM (inactive)
GI50 (Malme-3M): > 100 µM (inactive)
GI50 (NCI-H226): > 100 µM (inactive)
GI50 (NCI-H23): > 100 µM (inactive)
GI50 (NCI-H522): > 100 µM (inactive)
GI50 (NCI/ADR-RES): > 100 µM (inactive)
GI50 (OVCAR-3): > 100 µM (inactive)
GI50 (OVCAR-4): > 100 µM (inactive)
GI50 (OVCAR-5): > 100 µM (inactive)
GI50 (OVCAR-8): > 100 µM (inactive)
GI50 (PC-3): > 100 µM (inactive)
GI50 (RPMI-8226): 3.32 µM (inactive)
GI50 (RXF 393): > 100 µM (inactive)
GI50 (SF-268): > 100 µM (inactive)
GI50 (SF-295): > 100 µM (inactive)
GI50 (SK-MEL-28): > 100 µM (inactive)
GI50 (SK-MEL-2): > 100 µM (inactive)
GI50 (SK-MEL-5): > 100 µM (inactive)
GI50 (SK-OV-3): > 100 µM (inactive)
GI50 (SN12C): > 100 µM (inactive)
GI50 (SNB-19): > 100 µM (inactive)
GI50 (SNB-75): > 100 µM (inactive)
GI50 (SR): 2.37 µM (inactive)
GI50 (SW-620): > 100 µM (inactive)
GI50 (T47D): 4.11 µM (inactive)
GI50 (TK-10): > 100 µM (inactive)
GI50 (U-251): > 100 µM (inactive)
GI50 (UACC-257): > 100 µM (inactive)
GI50 (UACC-62): > 100 µM (inactive)
GI50 (UO-31): 56.2 µM (inactive)

Cl/C(=N\c1cccc2ccccc12)N(c1ccccc1)c1ccccc1
GI50 (786-0): > 100 µM (inactive)
GI50 (A498): > 100 µM (inactive)
GI50 (A549): 56.5 µM (inactive)
GI50 (ACHN): 66.7 µM (inactive)
GI50 (BT-549): > 100 µM (inactive)
GI50 (CAKI-1): > 100 µM (inactive)
GI50 (DU-145): > 100 µM (inactive)
GI50 (HCC 2998): 19.7 µM (inactive)
GI50 (HCT-116): 73.5 µM (inactive)
GI50 (HCT-15): > 100 µM
GI50 (HOP-62): > 100 µM (inactive)
GI50 (HT-29): 52.7 µM (inactive)
GI50 (Hs-578T): > 100 µM (inactive)
GI50 (IGROV-1): > 100 µM (inactive)
GI50 (K562): 31.8 µM (inactive)
GI50 (KM12): 75 µM (inactive)
GI50 (LOX IMVI): > 100 µM (inactive)
GI50 (M14): 43 µM (inactive)
GI50 (MCF7): 35.2 µM (inactive)
GI50 (MDA-MB-231): > 100 µM (inactive)
GI50 (MDA-MB-435): > 100 µM (inactive)
GI50 (MDA-N): 52 µM (inactive)
GI50 (Malme-3M): 39 µM (inactive)
GI50 (NCI-H23): > 100 µM (inactive)
GI50 (NCI-H460): 28.4 µM (inactive)
GI50 (NCI-H522): 41.2 µM (inactive)
GI50 (NCI/ADR-RES): > 100 µM (inactive)
GI50 (OVCAR-3): 60.1 µM (inactive)
GI50 (OVCAR-4): > 100 µM (inactive)
GI50 (OVCAR-5): > 100 µM (inactive)
GI50 (PC-3): 44.6 µM (inactive)
GI50 (RPMI-8226): 27.1 µM (inactive)
GI50 (RXF 393): > 100 µM (inactive)
GI50 (SF-295): 67.6 µM (inactive)
GI50 (SK-MEL-28): > 100 µM (inactive)
GI50 (SK-MEL-2): > 100 µM (inactive)
GI50 (SK-OV-3): > 100 µM (inactive)
GI50 (SN12C): > 100 µM (inactive)
GI50 (SNB-19): > 100 µM (inactive)
GI50 (SNB-75): > 100 µM (inactive)
GI50 (SR): 25.4 µM (inactive)
GI50 (SW-620): 92.7 µM (inactive)
GI50 (T47D): 61.4 µM (inactive)
GI50 (TK-10): 72.3 µM (inactive)
GI50 (U-251): 57.7 µM (inactive)
GI50 (UACC-257): 70 µM (inactive)
GI50 (UACC-62): 75.2 µM (inactive)
GI50 (UO-31): > 100 µM (inactive)
